Test results as given in PubChem BioAssay AID248 (DTP/NCI, 2004).
Several values for one entry are separate records, joined by “and”; a condition that tells them apart may be missing. Equal entries are not always repeated. Inconclusive results and toxic doses are left out. No stated cut-off is given here; in the data, active means T/C of 150% or more; inactive means T/C below 125%. Square brackets hold non-standard residues; d marks the D form. Peptide text beside a SMILES is read from it. * marks the point of attachment. ξ: configuration not given here. Tos = Cc1ccc(S(=O)(=O)*)cc1; ξY = NC(Cc1ccc(O)cc1)C(=O)O

System: L1210 leukemia ip in BDF1 mice, survival T/C
Test: NCI In Vivo Anticancer Drug Screen. Data for tumor model L1210 Leukemia (intraperitoneal) in B6D2F1 (BDF1) mice
Details: endpoint: mean survival time, higher = longer survival
Method in brief: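 Tumor cells were implanted, animals were treated, and survival was followed. The result divides the treated measurement by the vehicle-control measurement.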

[1] = dose: 50.0 mg/kg/injection, schedule: Q01DX009 (ip), vehicle: saline with Tween-80
[2] = dose: 50.0 mg/kg/injection, schedule: Q04DX003 (ip), vehicle: saline with Tween-80
[3] = dose: 100.0 mg/kg/injection, schedule: Q01DX001 (ip), vehicle: Klucel (hydroxypropylcellulose) (HPC)
[4] = dose: 100.0 mg/kg/injection, schedule: Q01DX009 (ip), vehicle: saline with Tween-80
[5] = dose: 100.0 mg/kg/injection, schedule: Q04DX003 (ip), vehicle: Klucel (hydroxypropylcellulose) (HPC)
[6] = dose: 100.0 mg/kg/injection, schedule: Q04DX003 (ip), vehicle: saline with Tween-80
[7] = dose: 200.0 mg/kg/injection, schedule: Q01DX001 (ip), vehicle: Klucel (hydroxypropylcellulose) (HPC)
[8] = dose: 200.0 mg/kg/injection, schedule: Q04DX003 (ip), vehicle: Klucel (hydroxypropylcellulose) (HPC)
[9] = dose: 400.0 mg/kg/injection, schedule: Q01DX001 (ip), vehicle: Klucel (hydroxypropylcellulose) (HPC)
[10] = dose: 400.0 mg/kg/injection, schedule: Q04DX003 (ip), vehicle: Klucel (hydroxypropylcellulose) (HPC)
[11] = dose: 200.0 mg/kg/injection, schedule: Q01DX009 (ip), vehicle: saline with Tween-80
[12] = dose: 400.0 mg/kg/injection, schedule: Q01DX009 (ip), vehicle: saline with Tween-80
[13] = dose: 50.0 mg/kg/injection, schedule: Q01DX009 (ip), vehicle: saline
[14] = dose: 100.0 mg/kg/injection, schedule: Q01DX009 (ip), vehicle: saline
[15] = dose: 100.0 mg/kg/injection, schedule: Q04DX003 (ip), vehicle: saline
[16] = dose: 12.5 mg/kg/injection, schedule: Q01DX009 (ip), vehicle: saline
[17] = dose: 25.0 mg/kg/injection, schedule: Q01DX009 (ip), vehicle: saline
[18] = dose: 100.0 mg/kg/injection, schedule: Q01DX009 (ip), vehicle: saline sonified
[19] = dose: 200.0 mg/kg/injection, schedule: Q01DX009 (ip), vehicle: saline sonified
[20] = dose: 400.0 mg/kg/injection, schedule: Q01DX009 (ip), vehicle: saline sonified

Measured: T/C

CC(C)C1CCC(NC(=O)Nc2ccccc2)CC1 (stereo unspecified)
inactive: dose: 25.0 mg/kg/injection, schedule: Q01DX009 (ip), vehicle: saline with Tween-80 93 % of control | dose: 25.0 mg/kg/injection, schedule: Q04DX003 (ip), vehicle: saline with Tween-80 97 % of control | [1] 95 % of control | [2] 101 % of control | [3] 111 % of control | [4] 88 % of control | [5] 94 % of control | [6] 100 % of control and 106 % of control | [7] 101 % of control | [8] 101 % of control | [9] 103 % of control | [10] 94 % of control

CN(CCCN1C(=O)c2ccccc2C1=O)c1ccc(N=O)cc1
inactive: dose: 25.0 mg/kg/injection, schedule: Q01DX001 (ip), vehicle: Klucel (hydroxypropylcellulose) (HPC) 101 % of control | dose: 50.0 mg/kg/injection, schedule: Q01DX001 (ip), vehicle: Klucel (hydroxypropylcellulose) (HPC) 95 % of control | [3] 92 % of control and 91 % of control

CC(C)c1ccc(C(=O)C(O)c2ccc(C(C)C)cc2)cc1 (stereo unspecified)
inactive: [4] 93 % of control | [11] 97 % of control | [12] 97 % of control

C[N+]1(C)C2CC(=O)CC1C1CC12 (stereo unspecified)
inactive: [13] 91 % of control | [14] 93 % of control | [15] 100 % of control | dose: 200.0 mg/kg/injection, schedule: Q01DX009 (ip), vehicle: saline 88 % of control | dose: 200.0 mg/kg/injection, schedule: Q04DX003 (ip), vehicle: saline 103 % of control

CCN(CC)Cc1cc(Nc2c3ccccc3nc3cc(Cl)ccc23)ccc1O
inactive: [16] 101 % of control | [17] 98 % of control | dose: 30.0 mg/kg/injection, schedule: Q01DX Z (ip), vehicle: methylcellulose (MC) 113 % of control | dose: 30.0 mg/kg/injection, schedule: Q01DX Z (ip), vehicle: saline 101 % of control | dose: 45.0 mg/kg/injection, schedule: Q01DX Z (ip), vehicle: methylcellulose (MC) 100 % of control | dose: 45.0 mg/kg/injection, schedule: Q01DX Z (ip), vehicle: saline 109 % of control | dose: 50.0 mg/kg/injection, schedule: Q01DX001 (ip), vehicle: carboxymethylcellulose (CMC) 102 % of control | [13] 103 % of control | dose: 67.0 mg/kg/injection, schedule: Q01DX Z (ip), vehicle: methylcellulose (MC) 101 % of control | dose: 67.0 mg/kg/injection, schedule: Q01DX Z (ip), vehicle: saline 107 % of control | dose: 100.0 mg/kg/injection, schedule: Q01DX001 (ip), vehicle: carboxymethylcellulose (CMC) 102 % of control | dose: 100.0 mg/kg/injection, schedule: Q01DX Z (ip), vehicle: methylcellulose (MC) 103 % of control | [15] 91 % of control | dose: 200.0 mg/kg/injection, schedule: Q01DX001 (ip), vehicle: carboxymethylcellulose (CMC) 105 % of control | dose: 400.0 mg/kg/injection, schedule: Q01DX001 (ip), vehicle: carboxymethylcellulose (CMC) 102 % of control

Cc1cc(=O)n(Cc2ccccc2)c(=O)[nH]1
inactive: [5] 98 % of control | [8] 98 % of control | [10] 93 % of control

CCCCCC(C)(C1=NC(C)(C)CC(C)O1)c1ccccc1 (stereo unspecified)
inactive: [18] 93 % of control | [19] 104 % of control | [20] 93 % of control

O=C1NC(=O)C2(CCCCCC2)N1
inactive: [1] 101 % of control | [2] 105 % of control | [18] 90 % of control | [4] 101 % of control | [6] 99 % of control and 111 % of control | [19] 96 % of control | [11] 98 % of control | dose: 200.0 mg/kg/injection, schedule: Q04DX003 (ip), vehicle: saline with Tween-80 100 % of control and 110 % of control | [20] 98 % of control | dose: 400.0 mg/kg/injection, schedule: Q04DX003 (ip), vehicle: saline with Tween-80 106 % of control

O=C(COc1ccc(Cl)cc1C(=O)O)Nc1cccc(NC(=O)Nc2ccc(S(=O)(=O)F)cc2)c1
inactive: [3] 91 % of control | [7] 101 % of control | [9] 93 % of control

CN(C)CCP(=O)(O)O
inactive: [4] 96 % of control | [11] 95 % of control | [12] 91 % of control

O=C(Nc1ccc(C2=NCCCN2)cc1)c1ccc(C(=O)Nc2ccc(C3=NCCCN3)cc2)c(Cl)c1
inactive: dose: 0.04 mg/kg/injection, schedule: Q01DX015 (ip), vehicle: water 98 % of control | dose: 0.09 mg/kg/injection, schedule: Q01DX015 (ip), vehicle: water 101 % of control | dose: 0.18 mg/kg/injection, schedule: Q01DX015 (ip), vehicle: water 95 % of control | dose: 0.37 mg/kg/injection, schedule: Q01DX015 (ip), vehicle: water 101 % of control | dose: 0.75 mg/kg/injection, schedule: Q01DX015 (ip), vehicle: water 107 % of control

NC(=O)c1ccc[n+](CCO)c1
inactive: dose: 3.1 mg/kg/injection, schedule: Q01DX009 (ip), vehicle: saline 102 % of control | dose: 6.25 mg/kg/injection, schedule: Q01DX009 (ip), vehicle: saline 104 % of control | [16] 98 % of control | [17] 104 % of control | [13] 110 % of control | [14] 100 % of control | dose: 115.0 mg/kg/injection, schedule: Q01DX Z (ip), vehicle: saline 100 % of control | dose: 150.0 mg/kg/injection, schedule: Q04DX003 (ip), vehicle: saline 100 % of control | dose: 175.0 mg/kg/injection, schedule: Q01DX Z (ip), vehicle: saline 94 % of control | dose: 225.0 mg/kg/injection, schedule: Q04DX003 (ip), vehicle: saline 104 % of control | dose: 265.0 mg/kg/injection, schedule: Q01DX Z (ip), vehicle: saline 105 % of control | dose: 335.0 mg/kg/injection, schedule: Q04DX003 (ip), vehicle: saline 100 % of control | dose: 400.0 mg/kg/injection, schedule: Q01DX Z (ip), vehicle: saline 100 % of control

COC(=O)C(Cc1ccc(O)cc1)NC(=O)CNS(=O)(=O)c1ccc(C)cc1 (stereo not drawn) (Tos-Gly-[ξY]-OMe)
inactive: dose: 100.0 mg/kg/injection, schedule: Q04DX003 (ip), vehicle: other 105 % of control | dose: 200.0 mg/kg/injection, schedule: Q04DX003 (ip), vehicle: other 94 % of control | dose: 400.0 mg/kg/injection, schedule: Q04DX003 (ip), vehicle: other 104 % of control

CC(C)(C)NCC1C(c2ccccc2)C1c1ccccc1 (stereo unspecified)
inactive: dose: 25.0 mg/kg/injection, schedule: Q04DX002 (ip), vehicle: Klucel (hydroxypropylcellulose) (HPC) 92 % of control | dose: 50.0 mg/kg/injection, schedule: Q04DX002 (ip), vehicle: Klucel (hydroxypropylcellulose) (HPC) 88 % of control

S=C(NCc1ccccc1)[S][Sn]([S]C(=S)NCc1ccccc1)([c]1ccccc1)[c]1ccccc1
inactive: dose: 5.0 mg/kg/injection, schedule: Q01DX001 (ip), vehicle: steriod suspending solution 98 % of control | dose: 10.0 mg/kg/injection, schedule: Q01DX001 (ip), vehicle: steriod suspending solution 97 % of control | dose: 20.0 mg/kg/injection, schedule: Q01DX001 (ip), vehicle: steriod suspending solution 106 % of control
